Data published in ChEMBL document CHEMBL1134171, “Synthesis and biological activity of novel potent endothelin-converting enzyme-1 inhibitors” (Bioorg Med Chem Lett, 2001).

Legend:
[1] = target: T1, Endothelin-converting enzyme 1 (Homo sapiens) (UniProt P42892); assay: In vitro inhibitory activity was tested against Endothelin converting enzyme 1 at a concentration of 1 uM
T1 sequence (whole entry): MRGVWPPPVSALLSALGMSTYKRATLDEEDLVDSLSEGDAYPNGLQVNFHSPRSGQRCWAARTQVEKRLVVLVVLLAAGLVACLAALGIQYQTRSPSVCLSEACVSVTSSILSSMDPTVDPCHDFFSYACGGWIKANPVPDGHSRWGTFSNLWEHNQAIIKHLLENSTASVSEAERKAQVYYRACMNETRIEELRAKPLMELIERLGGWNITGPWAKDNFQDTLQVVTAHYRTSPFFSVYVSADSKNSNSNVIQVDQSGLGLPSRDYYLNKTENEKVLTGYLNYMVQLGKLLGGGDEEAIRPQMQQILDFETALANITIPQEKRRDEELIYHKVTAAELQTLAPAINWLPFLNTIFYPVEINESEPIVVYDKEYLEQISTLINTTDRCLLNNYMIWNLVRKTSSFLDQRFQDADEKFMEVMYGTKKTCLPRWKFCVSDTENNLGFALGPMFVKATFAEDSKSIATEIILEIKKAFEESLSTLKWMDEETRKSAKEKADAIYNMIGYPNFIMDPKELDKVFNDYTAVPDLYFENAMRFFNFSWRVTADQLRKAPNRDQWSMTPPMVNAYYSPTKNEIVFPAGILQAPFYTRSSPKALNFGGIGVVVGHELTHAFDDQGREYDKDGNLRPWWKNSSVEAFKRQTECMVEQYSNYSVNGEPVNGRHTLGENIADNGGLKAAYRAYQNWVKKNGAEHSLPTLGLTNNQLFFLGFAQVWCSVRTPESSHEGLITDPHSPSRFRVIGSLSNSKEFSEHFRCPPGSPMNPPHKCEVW

[2] = target: T2, Endothelin-converting enzyme 1 (Homo sapiens, UniProt P42892); assay: In vitro inhibitory activity was tested against Endothelin converting enzyme 1
T2 sequence (P42892 whole entry): T1 sequence (whole entry)

inhibition [1] [%]	IC50 [2] [µM]	SMILES
39		CC(C)[C@H](S)C(=O)NC1(C(=O)N[C@@H](Cc2cccc(-c3ccccc3)c2)C(=O)O)CCCC1
	0.22	CC(C)[C@H](S)C(=O)NC1(C(=O)NC(Cc2ccc(-c3ccccn3)cc2)C(=O)O)CCCC1 (stereo partly drawn)
26		CC(C)[C@H](S)C(=O)NC1(C(=O)N[C@@H](Cc2ccccc2)C(=O)O)CCCC1
18		CC(C)[C@H](S)C(=O)NC1(C(=O)N[C@H](Cc2ccc(-c3ccccc3)cc2)C(=O)O)CCCC1
77		CC(C)[C@H](S)C(=O)NC1(C(=O)N[C@@H](Cc2ccc(-c3ccccc3)cc2)C(=O)O)CCCC1

The next lines start with the molecule.

SMILES	inhibition [1] [%]	IC50 [2] [µM]
CC(C)[C@H](S)C(=O)NC1(C(=O)N[C@@H](Cc2ccccc2-c2ccccc2)C(=O)O)CCCC1	0	
CC(C)[C@H](S)C(=O)NC1(C(=O)NC(Cc2ccc(-c3cncnc3)cc2)C(=O)O)CCCC1 (stereo partly drawn)		0.12
COc1ccc(-c2ccc(C[C@H](NC(=O)C3(NC(=O)[C@@H](S)C(C)C)CCCC3)C(=O)O)cc2)cc1	49	
COc1cc(OC)cc(-c2ccc(CC(NC(=O)C3(NC(=O)[C@@H](S)C(C)C)CCCC3)C(=O)O)cc2)c1 (stereo partly drawn)		0.99
CC(C)[C@H](S)C(=O)NC1(C(=O)N[C@@H](Cc2ccc(-c3ccc(C(F)(F)F)cc3)cc2)C(=O)O)CCCC1	54	
COc1cccc(-c2ccc(CC(NC(=O)C3(NC(=O)[C@@H](S)C(C)C)CCCC3)C(=O)O)cc2)c1OC (stereo partly drawn)		0.35
CC(C)[C@H](S)C(=O)NC1(C(=O)NC(Cc2ccc(-c3ccncc3)cc2)C(=O)O)CCCC1 (stereo partly drawn)	22	
CC(C)[C@H](S)C(=O)NC1(C(=O)NC(Cc2ccc(-c3cccnc3)cc2)C(=O)O)CCCC1 (stereo partly drawn)		0.15
